Measured values taken from patent US20120213697A1, “VERSATILE NANOPARTICULATE BIOMATERIAL FOR CONTROLLED DELIVERY AND/OR CONTAINMENT OF THERAPEUTIC AND DIAGNOSTIC MATERIAL” (Albert Einstein College of Medicine of Yeshiva University, priority 2009, published 2012).

Experiment: MRI of mice after tail vein injection, maximum pixel intensity of the kidney
Type: in vivo, mouse
Experimental: FIG. 2A-2B. MRI of a mouse injected with Magnevist® (gadopentetate dimeglumine) (A) and a mouse injected with nanoparticles loaded with gadopentetate dimeglumine (B). The left images are pre-injection, center images are 4 hours post injection, and right images are 24 hours post injection. […] A study was conducted to address the efficacy with which CA-loaded particles can provide MRI images. MRI images of mice were acquired pre-injection. Subsequently mice were injected (via the tail vein) with one of the following: i) a suspension of empty nanoparticles; ii) a suspension of nanoparticles loaded with Magnevist® (gadopentetate dimeglumine, a commercial Gd based MRI contrast reagent); and iii) Magnevist® solution. Mice were then imaged immediately after injection of each of these materials and again at 2 hours, 4 hours and 24 hours post injection. Maximum pixel intensity of the kidney was measured (relative to the background) at each time point using ImageJ software.

SMILES: CNC[C@H](O)[C@@H](O)[C@H](O)[C@H](O)CO.CNC[C@H](O)[C@@H](O)[C@H](O)[C@H](O)CO.O=C([O-])CN(CCN(CC(=O)[O-])CC(=O)O)CCN(CC(=O)[O-])CC(=O)O.[Gd+3] [Magnevist®, gadopentetate dimeglumine]
- increase of maximum pixel intensity of the kidney (4 hours post-injection, tail vein, one mouse each): 32%
- signal intensity throughout the GI tract (24 hour time point): not observed
- MRI contrast (FIG. 2) (24 hours post-injection): returned to pre-injection levels
- change of maximum pixel intensity of the kidney (24 hours post-injection, additional increase over 4 hours): returned to pre-injection levels
